From patent US7262340B2, “Gibberellin 2-oxidase” (Rothamsted Research Limited, priority 1998, dated 2007)

What was measured:
AtGA2ox1 = biological target: T1, AtGA2ox1 (Arabidopsis thaliana, UniProt Q8LEA2); test: Incubation of recombinant GA 2-oxidase AtGA2ox1 (E. coli lysate) with 14C-labelled GA substrates; format: biochemical; conditions: for 2β-Hydroxy GA product: E. coli cell lysate, 14C-labelled GA substrate and cofactors, 2.5 h, HPLC-radiomonitoring
T1 construct: made in house; host or cells: E. coli (crude cell lysate)
T1 sequence (Q8LEA2 1-329): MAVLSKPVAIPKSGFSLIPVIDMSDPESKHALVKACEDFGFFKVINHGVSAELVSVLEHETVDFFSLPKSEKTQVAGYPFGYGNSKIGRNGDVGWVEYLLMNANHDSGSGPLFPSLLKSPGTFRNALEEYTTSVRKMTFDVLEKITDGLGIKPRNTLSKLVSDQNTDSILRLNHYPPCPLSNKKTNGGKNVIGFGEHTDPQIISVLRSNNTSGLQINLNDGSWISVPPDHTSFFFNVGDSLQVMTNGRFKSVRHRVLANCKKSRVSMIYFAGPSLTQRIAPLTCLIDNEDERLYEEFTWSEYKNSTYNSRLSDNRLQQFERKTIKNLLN
Procedure: (§1) GA 2β-hydroxylase activity was determined by measuring the release of 3H2O from a 2β tritiated GA substrate, as described by Smith and MacMillan (Smith, V. A., and MacMillan, J. in J. Plant Growth Regulation 2 251-264 (1984)). The bacterial lysate (90 μl) was incubated with [1,2-^3H2]GA4 or [2,3-^3H2]GA9 (ca. 50000 dpm), in the presence of 4 mM 2-oxoglutarate, 0.5 mM Fe(II)SO4, 4 MM ascorbate, 4 mM DTT, 1 mg/ml catalase, 2 mg/ml BSA, in a final reaction volume of 100 μl. The mixture was incubated at 30° C. for 60 min. The tritiated GAs were removed by the addition of 1 ml of activated charcoal (5% w/v) and subsequent centrifugation for 5 min in a microfuge. Aliquots (0.5 ml) of the supernatant were mixed with 2 ml scintillation fluid and the radioactivity determined by scintillation counting.
(§2) In order to confirm the function of the cDNA expression products, bacterial lysate was incubated with [17-^14C]GAs in the presence of cofactors, as described above. After the incubation, acetic acid (10 μl) and water at pH 3 (140 μl) were added, and the mixture was centrifuged at 3,000 rpm for 10 min. The supernatant was analysed by HPLC with on-line radiomonitoring and products identified by GC-MS, as described previously (MacMillan et al Plant Physiol. 113 1369-1377 (1997)).
(§3) The catalytic properties of the recombinant proteins obtained by expressing the cDNAs from P. coccineus (PcGA2ox1) and A. thaliana (AtGA2ox1, AtGA2ox2 and AtGa2ox3) in E. coli were examined by incubating in the presence of dioxygenase cofactors with a range of ^14C-labelled GA substrates, consisting of the C19-GAs GA1, GA4, GA9 and GA20, and the C20-GAs, GA12 and GA15. This last compound was incubated in both its closed and open lactone forms. […] The mass spectnum of the product from GA15 is consistent with it being 2β-hydroxyGA15, although, because the authentic compound is not available for comparison, the identity of this product is tentative.
(§4) Values are % yield by HPLC-radiomonitoring of products after incubation of cell lysates from E. coli expressing the cDNA with ^14C-labelled GA substrate and cofactors for 2.5 h. Products and substrate were separated by HPLC and products identified by GC-MS. Where combined yield of products <100%, the remainder is unconverted substrate.

[1] = tested on: severely dwarfed 35S-PcGA2ox1 line; test: Metabolism of C19-GAs in a severely dwarfed 35S-PcGA2ox1 line compared with wild-type plants (HPLC); format: in vivo, Arabidopsis; conditions: severely dwarfed line versus wild-type, on the basis of HPLC
Excerpt: Metabolism of C19-Gas was compared in a severely dwarfed […] line with that in wild-type plants. […] Therefore, this GA can be used, when required, to reverse the GA-deficiency resulting from overexpressing GA 2-oxidase genes.

AtGA2ox3 = biological target: T2, AtGA2ox3 (Arabidopsis thaliana, UniProt O64692); test: Incubation of recombinant GA 2-oxidase AtGA2ox3 (E. coli lysate) with 14C-labelled GA substrates; format: biochemical; conditions: for 2β-Hydroxy GA product / GA-catabolite Product: E. coli cell lysate, 14C-labelled GA substrate and cofactors, 2.5 h, HPLC-radiomonitoring
T2 construct: made in house; host or cells: E. coli (crude cell lysate)
T2 sequence (O64692 1-335): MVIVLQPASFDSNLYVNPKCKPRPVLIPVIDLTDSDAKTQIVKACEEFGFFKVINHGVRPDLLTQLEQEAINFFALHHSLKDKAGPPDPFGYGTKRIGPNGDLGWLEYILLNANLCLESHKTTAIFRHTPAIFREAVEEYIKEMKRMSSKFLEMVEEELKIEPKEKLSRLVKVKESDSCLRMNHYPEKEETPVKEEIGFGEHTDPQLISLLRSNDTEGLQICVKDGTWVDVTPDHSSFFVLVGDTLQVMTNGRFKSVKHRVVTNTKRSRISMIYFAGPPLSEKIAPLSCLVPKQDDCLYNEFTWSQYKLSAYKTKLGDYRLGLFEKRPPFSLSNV
Procedure: as §1, §2, §3, §4

AtGA2ox2 = biological target: T3, AtGA2ox2 (Arabidopsis thaliana, UniProt Q9XFR9); test: Incubation of recombinant GA 2-oxidase AtGA2ox2 (E. coli lysate) with 14C-labelled GA substrates; format: biochemical; conditions: for 2β-Hydroxy GA product / GA-catabolite Product: E. coli cell lysate, 14C-labelled GA substrate and cofactors, 2.5 h, HPLC-radiomonitoring; for conversion of C20-GA substrate: 14C-labelled substrate, dioxygenase cofactors
T3 construct: made in house; host or cells: E. coli (crude cell lysate)
T3 sequence (Q9XFR9 1-341): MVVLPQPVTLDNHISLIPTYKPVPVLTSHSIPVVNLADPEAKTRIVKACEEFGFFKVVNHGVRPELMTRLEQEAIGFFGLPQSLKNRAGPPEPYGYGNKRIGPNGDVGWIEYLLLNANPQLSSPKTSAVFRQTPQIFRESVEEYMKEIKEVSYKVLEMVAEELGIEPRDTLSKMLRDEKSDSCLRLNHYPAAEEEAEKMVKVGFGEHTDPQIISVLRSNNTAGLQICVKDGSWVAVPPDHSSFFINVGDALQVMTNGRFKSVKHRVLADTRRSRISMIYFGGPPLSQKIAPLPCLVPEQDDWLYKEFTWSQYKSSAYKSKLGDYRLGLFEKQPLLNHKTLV
Procedure: as §1, §2, §3, §4

PcGA2ox1 = biological target: T4, PcGA2ox1 (Phaseolus coccineus, UniProt Q9XG83); test: Incubation of recombinant GA 2-oxidase PcGA2ox1 (E. coli lysate) with 14C-labelled GA substrates; format: biochemical; conditions: for 2β-Hydroxy GA product / GA-catabolite Product: E. coli cell lysate, 14C-labelled GA substrate and cofactors, 2.5 h, HPLC-radiomonitoring; for conversion of C20-GA substrate: 14C-labelled substrate, dioxygenase cofactors
T4 construct: unnamed vector-encoded fusion partner (phagemid expression); made in house; host or cells: E. coli (crude cell lysate)
T4 sequence (Q9XG83 1-331): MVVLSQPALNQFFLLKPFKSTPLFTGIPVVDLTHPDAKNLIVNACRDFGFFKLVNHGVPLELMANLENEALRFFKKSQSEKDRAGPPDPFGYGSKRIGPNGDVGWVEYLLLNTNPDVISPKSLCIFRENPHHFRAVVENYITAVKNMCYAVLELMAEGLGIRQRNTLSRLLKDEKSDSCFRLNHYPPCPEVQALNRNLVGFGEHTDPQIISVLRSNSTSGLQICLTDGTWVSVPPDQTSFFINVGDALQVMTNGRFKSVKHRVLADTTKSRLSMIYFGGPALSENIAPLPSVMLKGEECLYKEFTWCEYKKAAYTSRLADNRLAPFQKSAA
Procedure: as §1, §2, §3, §4

GA 2-oxidases = test: Substrate test with recombinant enzyme (GA 2-oxidases, enzyme not specified); format: biochemical
[2] = tested on: 35S-PcGA2ox1 transgenic Arabidopsis lines; test: GA3 treatment of Arabidopsis transformants overexpressing P. coccineus GA 2-oxidase; format: in vivo
Procedure: The transformation of Arabidopsis plants with P. coccineus GA 2-oxidase cDNA under the control of the CaMV ^35S promoter yielded the following results.
Five Arabidopsis lines that are homozygous for the 35S-PcGA2ox1 transgene were obtained. […] No flower buds were obtained when plants were grown in short photoperiods.

[3] = tested on: T3 and T24 (AtGA2ox1 and AtGA2ox2) transcript; test: Northern blot of GA 2-oxidase genes T3 and T24 after GA3 treatment of GA-deficient mutant; format: in vivo, Arabidopsis; conditions: immature flower buds and pedicels of GA-deficient mutant gal-2, after treatment
[4] = tested on: 2-oxoglutarate-dependent dioxygenases; conditions: pea seeds; cited from earlier work
[5] = 14C-labelled substrate, dioxygenase cofactors

Row | Compound | 2β-Hydroxy GA product (AtGA2ox1) | conversion to 2-oxidised products / metabolism by the dwarf line [1] | 2β-Hydroxy GA product (AtGA2ox3) | 2β-Hydroxy GA product (AtGA2ox2) | 2β-Hydroxy GA product (PcGA2ox1) | conversion of C20-GA substrate (AtGA2ox2) | conversion of C20-GA substrate (PcGA2ox1) | further results
1 | C=C1C[C@]23C[C@@]1(O)CC[C@H]2[C@@]12CC[C@H](O)[C@@](C)(C(=O)O1)[C@H]2[C@@H]3C(=O)O [GA1] | 41 % yield | to a much greater extent than did the wild-type | 100 % yield | 100 % yield | 100 % yield | – | – | GA-catabolite Product (AtGA2ox3): Trace
2 | C=C1C[C@]23C[C@@]1(O)CC[C@H]2[C@@]12C=C[C@H](O)[C@@](C)(C(=O)O1)[C@H]2[C@@H]3C(=O)O [GA3] | – | did not metabolise | – | – | – | – | – | substrate for the GA 2-oxidases (GA 2-oxidases): not a substrate; effect on bolting and flowering of the transgenic lines ([2]; 10 μM GA3, homozygous 35S-PcGA2ox1 lines): enabled them to bolt and produce normal flowers that set viable seed; response of dwarf transformants to treatment ([2]; Arabidopsis transformants, CaMV 35S promoter, concentration not given): increased stem elongation and normal flower development; transcript abundance for both T3 and T24 [3]: increased
3 | C=C1C[C@]23C[C@H]1CC[C@H]2[C@@]12CC[C@H](O)[C@@](C)(C(=O)O1)[C@H]2[C@@H]3C(=O)O [GA4] | 25 % yield | to a much greater extent than did the wild-type | 86 % yield | 77 % yield | 83 % yield | – | – | GA-catabolite Product (AtGA2ox3): 14 % yield; GA-catabolite Product (AtGA2ox2): 23 % yield; GA-catabolite Product (PcGA2ox1): 17 % yield
4 | C=C1C[C@]23C[C@H]1CC[C@H]2[C@@]12CCC[C@@](C)(C(=O)O1)[C@H]2[C@@H]3C(=O)O [GA9] | 91 % yield | to a much greater extent than did the wild-type | 100 % yield | – | 87 % yield | – | – | pH at which activity for 2β-hydroxylation of GA9 peaked (AtGA2ox1): 7; activity for 2β-hydroxylation of GA9 (AtGA2ox1; pH ≦5.9 and ≧8.1): no detectable activity; activity for 2β-hydroxylation of GA9, dependence on pH (AtGA2ox3; between pH 6.5 and 8): varied little; GA-catabolite Product (AtGA2ox2): 100 % yield; activity for 2β-hydroxylation of GA9, dependence on pH (AtGA2ox2; between pH 6.5 and 8): varied little; GA-catabolite Product (PcGA2ox1): 13 % yield; activity for 2β-hydroxylation of GA9, dependence on pH (PcGA2ox1; between pH 6.5 and 8): varied little
5 | C=C1C[C@]23C[C@H]1CC[C@H]2[C@]1(C)CCC[C@@](C)(C(=O)O)[C@H]1[C@@H]3C(=O)O [GA12] | – | – | – | – | – | No conversion | No conversion | conversion of C20-GA substrate (AtGA2ox1; [5]): No conversion; conversion of C20-GA substrate (AtGA2ox3; [5]): No conversion
6 | C=C1C[C@]23C[C@H]1CC[C@H]2[C@]1(CO)CCC[C@@](C)(C(=O)O)[C@H]1[C@@H]3C(=O)O [GA15 open lactone, 20-hydroxyGA12] | – | – | – | – | – | converted to the same product by AtGAox2, but less efficiently than was the lactone form | no conversion | –
7 | C=C1C[C@]23C[C@H]1CC[C@H]2[C@@]12CCC[C@@](C)(C(=O)OC1)[C@H]2[C@@H]3C(=O)O [GA15] | – | – | – | – | – | converted to a single product | converted to a single product | –
8 | C=C1C[C@]23C[C@@]1(O)CC[C@H]2[C@@]12CCC[C@@](C)(C(=O)O1)[C@H]2[C@@H]3C(=O)O [GA20] | 50 % yield | to a much greater extent than did the wild-type | 25 % yield | 100 % yield | 86 % yield | – | – | –
9 | prohexadione-calcium | – | – | – | – | – | – | – | conversion of GA29 to GA29-catabolite [4]: inhibited
